Results taken from ChEMBL document CHEMBL1156251, “Structure--activity relationships of polymyxin antibiotics” (J Med Chem, 2010).
In brackets after ≈: the same amount, converted by molar mass. Where a SMILES comes first, the peptide text is derived from it. Bridges are numbered along the chain shown (N, C = ends). [ ]: non-standard residue; d: D form. The star is where a group is joined. Octanoyl = CCCCCCCC(=O)*; Dab = NCC[C@H](N)C(=O)O

Columns and labels:
Escherichia coli = experiment: Antimicrobial activity against Escherichia coli; assay type: functional
Pseudomonas aeruginosa = experiment: Antimicrobial activity against Pseudomonas aeruginosa; assay type: functional, organism-based
Salmonella enterica = experiment: Antimicrobial activity against Salmonella enterica; assay type: functional
Lipopolysaccharide (LPS) = experiment: Displacement of dansyl-PMB from LPS by isothermal titration calorimetry; details: for IC50: read-out: IC50

| Structure (SMILES) | MIC (Escherichia coli) [µM] | MIC (Pseudomonas aeruginosa) | MIC (Salmonella enterica) [µM] | IC50 (Lipopolysaccharide (LPS)) [µM] | Ka (Lipopolysaccharide (LPS)) |
| --- | --- | --- | --- | --- | --- |
| CC(C)C[C@@H]1NC(=O)[C@@H](Cc2ccccc2)NC(=O)[C@H](CCN)NC(=O)[C@@H](NC(=O)[C@H](CCN)NC(=O)[C@@H](NC(=O)[C@H](CCN)NC(=O)c2ccc3ccccc3c2)[C@@H](C)O)CCNC(=O)[C@H]([C@@H](C)O)NC(=O)[C@H](CCN)NC(=O)[C@H](CCN)NC1=O [2-ANTHRACENE CARBOXYLIC ACID POLYMIXIN B] | 4 (≈ 4.87 µg/mL) | 2 µM | 2 (≈ 2.43 µg/mL) | – | – |
| C[C@@H]1NC(=O)[C@@H](Cc2ccccc2)NC(=O)[C@H](CCN)NC(=O)[C@@H](NC(=O)[C@H](CCN)NC(=O)[C@@H](N)[C@@H](C)O)CCNC(=O)[C@H]([C@@H](C)O)NC(=O)[C@H](CCN)NC(=O)[C@H](CCN)NC1=O | – | ≥ 250 µg/mL | – | 12 | – |
| CC(C)C[C@@H]1NC(=O)[C@@H](CC(C)C)NC(=O)[C@H](CCN)NC(=O)[C@@H](NC(=O)[C@H](CCN)NC(=O)[C@@H](NC(=O)[C@H](CCN)NC(=O)C2CCCCCCCCCCC2)[C@@H](C)O)CCNC(=O)[C@H]([C@@H](C)O)NC(=O)[C@H](CCN)NC(=O)[C@H](CCN)NC1=O [CYCLODODECANE CARBOXYLIC ACID COLISTIN] | 4 (≈ 4.89 µg/mL) | 2 µM | 2 (≈ 2.45 µg/mL) | – | – |
| CC(C)C[C@@H]1NC(=O)[C@@H](Cc2ccccc2)NC(=O)[C@H](CCN)NC(=O)[C@@H](NC(=O)[C@H](CCN)NC(=O)[C@@H](NC(=O)[C@H](CCN)NC(=O)C(c2ccccc2)C2CCCC2)[C@@H](C)O)CCNC(=O)[C@H]([C@@H](C)O)NC(=O)[C@H](CCN)NC(=O)[C@H](CCN)NC1=O (some centres undefined) [CYCLOPENTYLPHENYL ACETIC ACID POLYMIXIN B] | 8 (≈ 10 µg/mL) | 2 µM | 8 (≈ 10 µg/mL) | – | – |
| CC(C)C[C@@H]1NC(=O)[C@@H](CC(C)C)NC(=O)[C@H](CCN)NC(=O)[C@@H](NC(=O)[C@H](CCN)NC(=O)[C@@H](NC(=O)[C@H](CCN)NC(=O)c2ccc3cc4ccccc4cc3c2)[C@@H](C)O)CCNC(=O)[C@H]([C@@H](C)O)NC(=O)[C@H](CCN)NC(=O)[C@H](CCN)NC1=O | 4 (≈ 4.93 µg/mL) | 2 µM | 2 (≈ 2.47 µg/mL) | – | – |
| CC(C)C[C@@H]1NC(=O)[C@@H](Cc2c[nH]c3ccccc23)NC(=O)[C@H](CCN)NC(=O)[C@@H](NC(=O)[C@H](CCN)NC(=O)[C@@H](N)[C@@H](C)O)CCNC(=O)[C@H]([C@@H](C)O)NC(=O)[C@H](CCN)NC(=O)[C@H](CCN)NC1=O | – | ≥ 500 µg/mL | – | 4 | – |
| CC(=O)N[C@H](C(=O)N[C@@H](CCN)C(=O)N[C@H]1CCNC(=O)[C@H]([C@@H](C)O)NC(=O)[C@H](CCN)NC(=O)[C@H](CCN)NC(=O)[C@H](CC(C)C)NC(=O)[C@@H](Cc2ccccc2)NC(=O)[C@H](CCN)NC1=O)[C@@H](C)O | 32 (≈ 32.2 µg/mL) | 2 µM | 128 (≈ 129 µg/mL) | – | – |
| CC(C)C[C@@H]1NC(=O)[C@@H](CC(C)C)NC(=O)[C@H](CCN)NC(=O)[C@@H](NC(=O)[C@H](CCN)NC(=O)[C@@H](NC(=O)[C@H](CCN)NC(=O)C(c2ccccc2)C2CCCC2)[C@@H](C)O)CCNC(=O)[C@H]([C@@H](C)O)NC(=O)[C@H](CCN)NC(=O)[C@H](CCN)NC1=O (some centres undefined) [CYCLOPENTYLPHENYL ACETIC ACID COLISTIN] | 16 (≈ 19.4 µg/mL) | 2 µM | 16 (≈ 19.4 µg/mL) | – | – |
| CC(C)C[C@@H]1NC(=O)[C@@H](Cc2ccc(O)cc2)NC(=O)[C@H](CCN)NC(=O)[C@@H](NC(=O)[C@H](CCN)NC(=O)[C@@H](N)[C@@H](C)O)CCNC(=O)[C@H]([C@@H](C)O)NC(=O)[C@H](CCN)NC(=O)[C@H](CCN)NC1=O | – | ≥ 500 µg/mL | – | 25 | – |
| CC[C@H](C)[C@H](N)C(=O)N[C@@H](CCCCN)C(=O)N[C@H](C(=O)N[C@@H](CCCCN)C(=O)N[C@@H](CCCCN)C(=O)N[C@@H](Cc1ccccc1)C(=O)N[C@@H](CC(C)C)C(=O)N[C@@H](CCCCN)C(=O)N[C@@H](CCCCN)C(=O)N[C@H](C(=O)O)[C@@H](C)O)[C@@H](C)O (H-IKTKKFLKKT-OH) | – | – | – | – | 0.2 10^5/M |
| CC(=O)N[C@H](C(=O)N[C@@H](CCN)C(=O)N[C@H]1CCNC(=O)[C@H]([C@@H](C)O)NC(=O)[C@H](CCN)NC(=O)[C@H](CCN)NC(=O)[C@H](CC(C)C)NC(=O)[C@@H](CC(C)C)NC(=O)[C@H](CCN)NC1=O)[C@@H](C)O | 128 (≈ 124 µg/mL) | 2 µM | > 512 | – | – |
| CCCC1CCC(C(=O)N[C@@H](CCN)C(=O)N[C@H](C(=O)N[C@@H](CCN)C(=O)N[C@H]2CCNC(=O)[C@H]([C@@H](C)O)NC(=O)[C@H](CCN)NC(=O)[C@H](CCN)NC(=O)[C@H](CC(C)C)NC(=O)[C@@H](Cc3ccccc3)NC(=O)[C@H](CCN)NC2=O)[C@@H](C)O)CC1 (some centres undefined) | 4 (≈ 4.86 µg/mL) | 2 µM | 4 (≈ 4.86 µg/mL) | – | – |
| CCCCCCCCCCCCCC(=O)N[C@H](C(=O)N[C@@H](CCN)C(=O)N[C@H]1CCNC(=O)[C@H]([C@@H](C)O)NC(=O)[C@H](CCN)NC(=O)[C@H](CCN)NC(=O)[C@H](CC(C)C)NC(=O)[C@@H](Cc2ccccc2)NC(=O)[C@H](CCN)NC1=O)[C@@H](C)O | 4 (≈ 4.69 µg/mL) | 4 µM | 4 (≈ 4.69 µg/mL) | – | – |
| CCCC1CCC(C(=O)N[C@@H](CCN)C(=O)N[C@H](C(=O)N[C@@H](CCN)C(=O)N[C@H]2CCNC(=O)[C@H]([C@@H](C)O)NC(=O)[C@H](CCN)NC(=O)[C@H](CCN)NC(=O)[C@H](CC(C)C)NC(=O)[C@@H](CC(C)C)NC(=O)[C@H](CCN)NC2=O)[C@@H](C)O)CC1 (some centres undefined) | 8 (≈ 9.45 µg/mL) | 2 µM | 8 (≈ 9.45 µg/mL) | – | – |
| C[C@@H](O)[C@H](N)C(=O)N[C@@H](CCN)C(=O)N[C@H]1CCNC(=O)[C@H]([C@@H](C)O)NC(=O)[C@H](CCN)NC(=O)[C@H](CCN)NC(=O)[C@H](Cc2ccccc2)NC(=O)[C@@H](Cc2ccccc2)NC(=O)[C@H](CCN)NC1=O | – | ≥ 250 µg/mL | – | 5 | – |
| CCCCCCCC(=O)N[C@@H](CCN)C(=O)N[C@@H](C)C(=O)N[C@@H](CCN)C(=O)N[C@H]1CCNC(=O)[C@H]([C@@H](C)O)NC(=O)[C@H](CCN)NC(=O)[C@H](CCN)NC(=O)[C@H](CC(C)C)NC(=O)[C@@H](Cc2ccccc2)NC(=O)[C@H](CCN)NC1=O (Octanoyl-[Dab]A[Dab][Dab][Dab][dF]L[Dab][Dab]T; lactam 4-C) | 8 (≈ 9.28 µg/mL) | 2 µM | 4 (≈ 4.64 µg/mL) | – | – |

The next lines start with the values.

| MIC (Escherichia coli) [µM] | MIC (Pseudomonas aeruginosa) | MIC (Salmonella enterica) [µM] | IC50 (Lipopolysaccharide (LPS)) [µM] | Ka (Lipopolysaccharide (LPS)) | Structure (SMILES) |
| --- | --- | --- | --- | --- | --- |
| 2 (≈ 2.52 µg/mL) | 2 µM | 2 (≈ 2.52 µg/mL) | – | – | CC(C)C[C@@H]1NC(=O)[C@@H](Cc2ccccc2)NC(=O)[C@H](CCN)NC(=O)[C@@H](NC(=O)[C@H](CCN)NC(=O)[C@@H](NC(=O)[C@H](CCN)NC(=O)C2CCCCCCCCCCC2)[C@@H](C)O)CCNC(=O)[C@H]([C@@H](C)O)NC(=O)[C@H](CCN)NC(=O)[C@H](CCN)NC1=O [CYCLODEDECANE CARBOXYLIC ACID POLYMIXIN B] |
| 2 (≈ 2.32 µg/mL) | 2 µM | 2 (≈ 2.32 µg/mL) | – | – | CCCCCCCC(=O)N[C@@H](C)C(=O)N[C@H](C(=O)N[C@@H](CCN)C(=O)N[C@H]1CCNC(=O)[C@H]([C@@H](C)O)NC(=O)[C@H](CCN)NC(=O)[C@H](CCN)NC(=O)[C@H](CC(C)C)NC(=O)[C@@H](Cc2ccccc2)NC(=O)[C@H](CCN)NC1=O)[C@@H](C)O (Octanoyl-AT[Dab][Dab][Dab][dF]L[Dab][Dab]T; lactam 4-C) |
| 1 (≈ 1.42 µg/mL) | 1 µM | 1 (≈ 1.42 µg/mL) | – | – | CCCCCCCC(=O)N[C@@H](CCNS(=O)(=O)c1cccc2c(N(C)C)cccc12)C(=O)N[C@H](C(=O)N[C@@H](CCN)C(=O)N[C@H]1CCNC(=O)[C@H]([C@@H](C)O)NC(=O)[C@H](CCN)NC(=O)[C@H](CCN)NC(=O)[C@H](CC(C)C)NC(=O)[C@@H](Cc2ccccc2)NC(=O)[C@H](CCN)NC1=O)[C@@H](C)O |
| 1 (≈ 1.22 µg/mL) | 1 µM | 2 (≈ 2.45 µg/mL) | – | – | CC(C)C[C@@H]1NC(=O)[C@@H](CC(C)C)NC(=O)[C@H](CCN)NC(=O)[C@@H](NC(=O)[C@H](CCN)NC(=O)[C@@H](NC(=O)[C@H](CCN)NC(=O)Cc2ccc(-c3ccccc3)cc2)[C@@H](C)O)CCNC(=O)[C@H]([C@@H](C)O)NC(=O)[C@H](CCN)NC(=O)[C@H](CCN)NC1=O |
| 1 (≈ 1.24 µg/mL) | 1 µM | 0.5 (≈ 0.62 µg/mL) | – | – | CC(C)C[C@@H]1NC(=O)[C@@H](Cc2ccccc2)NC(=O)[C@H](CCN)NC(=O)[C@@H](NC(=O)[C@H](CCN)NC(=O)[C@@H](NC(=O)[C@H](CCN)NC(=O)CC23CC4CC(CC(C4)C2)C3)[C@@H](C)O)CCNC(=O)[C@H]([C@@H](C)O)NC(=O)[C@H](CCN)NC(=O)[C@H](CCN)NC1=O [1-ADAMANTANEACETIC ACID POLYMIXIN B] |
| 2 (≈ 2.41 µg/mL) | 1 µM | 1 (≈ 1.21 µg/mL) | – | – | CC(C)C[C@@H]1NC(=O)[C@@H](CC(C)C)NC(=O)[C@H](CCN)NC(=O)[C@@H](NC(=O)[C@H](CCN)NC(=O)[C@@H](NC(=O)[C@H](CCN)NC(=O)CC23CC4CC(CC(C4)C2)C3)[C@@H](C)O)CCNC(=O)[C@H]([C@@H](C)O)NC(=O)[C@H](CCN)NC(=O)[C@H](CCN)NC1=O |
| 1 (≈ 1.16 µg/mL) | 2 µM | 1 (≈ 1.16 µg/mL) | – | – | CCCCCCCC(=O)N[C@@H](CCN)C(=O)N[C@H](C(=O)N[C@@H](C)C(=O)N[C@H]1CCNC(=O)[C@H]([C@@H](C)O)NC(=O)[C@H](CCN)NC(=O)[C@H](CCN)NC(=O)[C@H](CC(C)C)NC(=O)[C@@H](Cc2ccccc2)NC(=O)[C@H](CCN)NC1=O)[C@@H](C)O (Octanoyl-[Dab]TA[Dab][Dab][dF]L[Dab][Dab]T; lactam 4-C) |
| 2 (≈ 2.36 µg/mL) | 1 µM | 1 (≈ 1.18 µg/mL) | – | – | CC(C)C[C@@H]1NC(=O)[C@@H](CC(C)C)NC(=O)[C@H](CCN)NC(=O)[C@@H](NC(=O)[C@H](CCN)NC(=O)[C@@H](NC(=O)[C@H](CCN)NC(=O)CCCC2CCCCC2)[C@@H](C)O)CCNC(=O)[C@H]([C@@H](C)O)NC(=O)[C@H](CCN)NC(=O)[C@H](CCN)NC1=O |
| 0.5 (≈ 0.608 µg/mL) | 1 µM | 0.5 (≈ 0.608 µg/mL) | – | – | CC(C)C[C@@H]1NC(=O)[C@@H](Cc2ccccc2)NC(=O)[C@H](CCN)NC(=O)[C@@H](NC(=O)[C@H](CCN)NC(=O)[C@@H](NC(=O)[C@H](CCN)NC(=O)CCCC2CCCCC2)[C@@H](C)O)CCNC(=O)[C@H]([C@@H](C)O)NC(=O)[C@H](CCN)NC(=O)[C@H](CCN)NC1=O |
